Where a name gives a salt, the structure may show the parent alone. Read-outs that look alike come from different tables or passages of the source.
Tests used:
[1] = system: maximal electroshock (MES) seizures; assay: MES (maximal electroshock) test, mice; format: in vivo; conditions: mice, IP, Table 14; for ED50: Mus musculus, read-out: MES ED50
Excerpt: Evaluation of Compounds in MES Models of Seizures. […] These seizures are highly reproducible and are electrophysiologically consistent with human seizures. […] Abolition of the hindleg tonic extensor component of the seizure was used as the endpoint.

[2] = system: Metrazol-induced clonic seizures; assay: scM (subcutaneous Metrazol) test, mice; format: in vivo; conditions: mice, IP, Table 14; for ED50: Mus musculus, read-out: sCM ED50
Description: Evaluation of Compounds in scM Models of Seizures. Subcutaneous injection of the convulsant Metrazol produces clonic seizures in laboratory animals. […] Animals may be pretreated with various doses of the test compound given by ip injection. At a previously determined TPE (time to peak) of the test compound, the dose of Metrazol which will induce convulsions in 97% of animals (CD97:85 mg/kg mice) may be injected into a loose fold of skin in the midline of the neck. The animals may be placed in isolation cages to minimize stress and observed for the next 30 min for the presence or absence of a seizure. An episode of clonic spasms, approximately 3-5 seconds, of the fore and/or hindlimbs, jaws, or vibrissae may be taken as the endpoint. […] The scM test represents acute animal seizures.

[3] = system: 6 Hz psychomotor seizures; assay: 6 Hz psychomotor seizure test, mice; format: in vivo; conditions: IP; for 6 Hz (32 mA) ED50 / 6 Hz (14 mA) ED50: Table 14; for ED50: Mus musculus
Description: Evaluation of Compounds in 6 Hz Pyschomotor Seizure Test
Compounds were tested using a 6 Hz psychomotor seizure test. […] For example, both the MES and scM models are insensitive to levetiracetam, a compound considered potentially useful in the management of refractory seizures. […] Thus, the 6 Hz test can serve as a therapy resistant screening paradigm of acute seizure activity.

[4] = system: 6 Hz psychomotor seizures; conditions: cited from earlier work
NaV1.5 [5] = target: T1, NaV1.5 (Homo sapiens, UniProt Q14524); assay: High-throughput flux assay, NaV1.5; format: cell-based; conditions: human isoform;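 further: IC50 from the flux assay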
Description: (§1) Evaluation of Compounds on Human Isoforms Using a High-Throughput Flux Assay
(§2) Compounds were tested using a high-throughput flux assay across Nav1.5, Nav1.6 and Nav1.7.

NaV1.7 [6] = target: T2, NaV1.7 (Homo sapiens, UniProt Q15858); assay: High-throughput flux assay, NaV1.7; format: cell-based; conditions: human isoform;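 further: IC50 from the flux assay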
T2 sequence (Q15858 whole entry, canonical isoform): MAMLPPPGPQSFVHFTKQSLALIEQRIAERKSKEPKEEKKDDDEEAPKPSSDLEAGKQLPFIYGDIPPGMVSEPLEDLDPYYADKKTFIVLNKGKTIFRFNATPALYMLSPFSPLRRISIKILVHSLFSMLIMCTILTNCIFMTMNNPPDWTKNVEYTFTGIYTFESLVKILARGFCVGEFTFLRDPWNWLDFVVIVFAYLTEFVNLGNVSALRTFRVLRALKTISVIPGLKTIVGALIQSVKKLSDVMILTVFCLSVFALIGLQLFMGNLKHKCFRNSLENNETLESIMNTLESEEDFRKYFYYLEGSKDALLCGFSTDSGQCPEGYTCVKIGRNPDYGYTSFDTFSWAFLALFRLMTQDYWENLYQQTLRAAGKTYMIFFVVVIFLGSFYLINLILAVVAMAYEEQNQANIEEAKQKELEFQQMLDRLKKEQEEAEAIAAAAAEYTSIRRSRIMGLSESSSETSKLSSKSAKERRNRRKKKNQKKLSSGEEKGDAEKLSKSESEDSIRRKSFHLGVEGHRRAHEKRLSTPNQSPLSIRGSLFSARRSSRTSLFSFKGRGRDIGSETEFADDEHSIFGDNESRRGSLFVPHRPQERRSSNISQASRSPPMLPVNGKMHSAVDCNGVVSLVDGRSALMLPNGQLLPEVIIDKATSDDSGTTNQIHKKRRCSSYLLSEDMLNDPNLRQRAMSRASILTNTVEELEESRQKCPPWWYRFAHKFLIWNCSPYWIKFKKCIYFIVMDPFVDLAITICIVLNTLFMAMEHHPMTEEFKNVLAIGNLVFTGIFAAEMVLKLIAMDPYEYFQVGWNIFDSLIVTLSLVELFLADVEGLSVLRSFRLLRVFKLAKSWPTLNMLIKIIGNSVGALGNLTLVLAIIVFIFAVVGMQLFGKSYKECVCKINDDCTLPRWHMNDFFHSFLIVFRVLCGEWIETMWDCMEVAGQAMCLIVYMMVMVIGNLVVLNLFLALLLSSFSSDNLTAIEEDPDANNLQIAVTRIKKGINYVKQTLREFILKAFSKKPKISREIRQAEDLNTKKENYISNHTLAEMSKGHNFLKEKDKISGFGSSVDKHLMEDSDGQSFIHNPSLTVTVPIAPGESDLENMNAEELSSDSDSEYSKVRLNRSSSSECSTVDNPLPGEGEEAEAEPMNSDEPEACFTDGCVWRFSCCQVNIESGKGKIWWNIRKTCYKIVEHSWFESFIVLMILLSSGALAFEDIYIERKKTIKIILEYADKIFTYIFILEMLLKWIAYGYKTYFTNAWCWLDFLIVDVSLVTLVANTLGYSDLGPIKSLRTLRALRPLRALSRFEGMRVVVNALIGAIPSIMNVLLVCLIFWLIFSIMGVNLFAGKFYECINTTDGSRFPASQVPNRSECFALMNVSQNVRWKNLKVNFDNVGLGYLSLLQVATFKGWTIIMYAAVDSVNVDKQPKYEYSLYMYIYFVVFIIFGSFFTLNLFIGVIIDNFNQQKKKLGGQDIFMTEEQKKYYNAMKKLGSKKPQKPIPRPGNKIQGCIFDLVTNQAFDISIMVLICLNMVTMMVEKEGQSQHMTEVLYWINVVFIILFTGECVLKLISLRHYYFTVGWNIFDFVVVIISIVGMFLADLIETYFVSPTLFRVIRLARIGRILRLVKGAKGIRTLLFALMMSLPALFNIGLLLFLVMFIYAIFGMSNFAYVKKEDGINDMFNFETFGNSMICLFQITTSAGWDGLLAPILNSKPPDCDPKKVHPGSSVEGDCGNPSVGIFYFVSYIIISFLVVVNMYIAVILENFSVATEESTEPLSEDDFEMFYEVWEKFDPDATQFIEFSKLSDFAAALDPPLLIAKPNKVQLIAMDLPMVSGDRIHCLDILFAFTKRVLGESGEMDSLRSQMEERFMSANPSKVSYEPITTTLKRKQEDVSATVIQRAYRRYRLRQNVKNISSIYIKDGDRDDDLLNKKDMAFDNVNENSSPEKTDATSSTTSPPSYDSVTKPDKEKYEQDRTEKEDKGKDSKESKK
Description: as §1, §2

Nav1.6 [7] = target: T3, Nav1.6 (Homo sapiens, UniProt Q9UQD0); assay: High-throughput flux assay, Nav1.6; format: cell-based; conditions: human isoform;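 further: IC50 from the flux assay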
T3 sequence (Q9UQD0 whole entry, canonical isoform): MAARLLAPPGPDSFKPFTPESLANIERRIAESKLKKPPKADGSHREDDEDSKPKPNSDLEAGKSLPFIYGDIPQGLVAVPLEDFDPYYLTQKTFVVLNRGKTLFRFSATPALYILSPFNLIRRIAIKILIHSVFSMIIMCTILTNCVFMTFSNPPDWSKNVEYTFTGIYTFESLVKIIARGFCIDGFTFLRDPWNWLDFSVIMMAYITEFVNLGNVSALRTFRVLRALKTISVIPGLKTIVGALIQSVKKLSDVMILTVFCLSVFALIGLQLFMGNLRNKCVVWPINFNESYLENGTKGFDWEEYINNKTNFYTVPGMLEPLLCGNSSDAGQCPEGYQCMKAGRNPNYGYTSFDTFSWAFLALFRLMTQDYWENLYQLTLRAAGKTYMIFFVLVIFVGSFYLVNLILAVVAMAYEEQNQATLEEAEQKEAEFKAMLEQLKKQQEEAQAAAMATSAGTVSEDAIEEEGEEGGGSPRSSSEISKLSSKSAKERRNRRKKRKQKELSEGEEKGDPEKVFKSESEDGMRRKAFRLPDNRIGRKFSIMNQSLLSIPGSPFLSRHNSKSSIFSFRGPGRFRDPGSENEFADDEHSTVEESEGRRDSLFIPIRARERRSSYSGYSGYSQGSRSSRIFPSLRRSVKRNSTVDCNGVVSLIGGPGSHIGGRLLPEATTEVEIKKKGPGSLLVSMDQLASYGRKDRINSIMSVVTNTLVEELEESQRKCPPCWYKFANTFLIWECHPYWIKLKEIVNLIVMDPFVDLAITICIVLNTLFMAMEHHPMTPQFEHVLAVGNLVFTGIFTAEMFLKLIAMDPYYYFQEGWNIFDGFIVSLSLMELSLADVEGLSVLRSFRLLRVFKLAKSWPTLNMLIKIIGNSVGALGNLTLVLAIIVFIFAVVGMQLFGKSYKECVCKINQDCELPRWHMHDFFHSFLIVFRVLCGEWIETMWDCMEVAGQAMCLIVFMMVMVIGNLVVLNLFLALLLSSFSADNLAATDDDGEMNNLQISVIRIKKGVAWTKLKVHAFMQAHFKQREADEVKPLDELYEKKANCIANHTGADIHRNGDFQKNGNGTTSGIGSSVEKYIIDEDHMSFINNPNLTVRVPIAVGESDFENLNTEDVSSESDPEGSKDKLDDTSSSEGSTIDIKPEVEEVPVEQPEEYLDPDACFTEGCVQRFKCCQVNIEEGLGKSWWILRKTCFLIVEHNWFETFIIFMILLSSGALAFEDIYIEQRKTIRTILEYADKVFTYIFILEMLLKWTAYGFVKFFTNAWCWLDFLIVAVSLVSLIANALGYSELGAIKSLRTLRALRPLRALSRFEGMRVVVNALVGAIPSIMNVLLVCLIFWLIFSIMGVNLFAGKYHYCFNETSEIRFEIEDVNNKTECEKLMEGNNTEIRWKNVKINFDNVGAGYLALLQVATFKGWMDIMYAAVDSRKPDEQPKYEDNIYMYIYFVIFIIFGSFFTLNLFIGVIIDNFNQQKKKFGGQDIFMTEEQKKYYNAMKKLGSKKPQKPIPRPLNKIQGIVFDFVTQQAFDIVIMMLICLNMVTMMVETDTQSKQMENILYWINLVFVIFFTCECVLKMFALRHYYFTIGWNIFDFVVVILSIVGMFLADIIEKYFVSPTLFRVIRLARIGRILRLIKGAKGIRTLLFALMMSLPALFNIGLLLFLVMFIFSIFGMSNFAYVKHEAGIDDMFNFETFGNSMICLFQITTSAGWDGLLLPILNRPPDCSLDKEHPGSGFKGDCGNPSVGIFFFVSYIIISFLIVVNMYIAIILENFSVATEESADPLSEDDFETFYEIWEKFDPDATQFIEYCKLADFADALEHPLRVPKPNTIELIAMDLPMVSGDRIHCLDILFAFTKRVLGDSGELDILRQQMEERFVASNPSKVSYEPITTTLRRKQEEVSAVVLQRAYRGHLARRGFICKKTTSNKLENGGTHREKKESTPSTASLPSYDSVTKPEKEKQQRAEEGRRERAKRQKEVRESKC
Description: as §1, §2

Nav1.6 [8] = target: T3, Nav1.6; assay: Qube assay, NaV1.6; format: cell-based; conditions: human isoform; read-out: Qube EP IC50 NaV1.6
Description: (§3) Evaluation of Compounds on Human Isoforms Using Qube Assay.
(§4) Compounds were tested using a Qube assay across NaV1.5, NaV1.6 and NaV1.7.

Nav1.6 [9] = target: T3, Nav1.6; assay: % block of Nav1.6 at 100 μM and IC50 (NaV1.6); format: cell-based; conditions: for inhibition at 100 µM: 100 μM compound; for IC50: NaV1.6, Table 2, MV1060-MV1091, unit inferred, read-out: IC50
Description: Evaluation of Compounds for % Block of Nav1.6 at 100 μM
Compounds of the present invention were tested in an assay for % block of Nav1.6 at a concentration of 100 μM compound. Table 1 also indicates the melting point ranges for some compounds.
Some such compounds correspond to a compound of Formula III, wherein R9 is substituted with a halogen, a nitro or a CF3 group. In comparing MV1089, MV1090 and MV1091, it is shown that compounds of Formula III where R3 is H result in higher % block than when R3 is substituted. e.g., by OCH3. In comparing MV1066, MV1084, MV1085, MV1086, MV1087 and MV1088, it is shown that compounds of Formula III where R9 is halogen, a nitro or a CF3 group result in higher % block than when R9 is OCH3, COOH or CH3.

NaV1.5 [10] = target: T1, NaV1.5; assay: Qube assay, NaV1.5; format: cell-based; conditions: human isoform; read-out: Qube EP IC50 NaV1.5
Description: as §3, §4

NaV1.7 [11] = target: T2, NaV1.7; assay: Qube assay, NaV1.7; format: cell-based; conditions: human isoform; read-out: Qube EP IC50 NaV1.7
Description: as §3, §4

[12] = 32 mA, Table 14, read-out: 6 Hz (32 mA) ED50

Nc1nnc(-c2cccc(Cl)c2Cl)c(N)n1 [Lamotrigine, reference compound]
ED50 [1]: 7.5 mg/kg | sCM ED50 [2]: None | 6 Hz (32 mA) ED50 ([3]; 32 mA): None | 6 Hz (14 mA) ED50 ([3]; (14 mA) [sic]): None | activity in 6 Hz test ([4]; 32 mA): lose activity

COc1ccc(-c2nc(C)c(-c3ccccc3)[nH]2)cc1 [MV1501, 2-(4-methoxyphenyl)-4-methyl-5-phenyl-1H-imidazole hydrochloride]
IC50 (NaV1.5 [5]): 6.24 µM | IC50 (NaV1.7 [6]): 7.98 µM | IC50 (Nav1.6 [7]): 2.74 µM | IC50 (Nav1.6 [8]): 7.43 µM | inhibition at 100 µM (Nav1.6 [9]): 90% | IC50 (NaV1.5 [10]): 27 µM | IC50 (NaV1.7 [11]): 14.8 µM

CC(=O)Nc1ccc(-c2nc(C)c(-c3ccccc3)[nH]2)cc1 [MV1509, N-2,4-[3-methyl-4-phenyl-1H-imidazol-2-yl)phenyl]acetamide hydrochloride]
IC50 (NaV1.5 [5]): 7.94 µM | IC50 (NaV1.7 [6]): 23.8 µM | IC50 (Nav1.6 [7]): 5.67 µM | IC50 (Nav1.6 [8]): 8.24 µM | inhibition at 100 µM (Nav1.6 [9]): 90% | IC50 (NaV1.5 [10]): 15.9 µM | IC50 (NaV1.7 [11]): 30 µM

CCC1(C)CC(=O)NC1=O (centres unmarked) [Ethosuximide, reference compound]
MES ED50 [1]: None | ED50 [2]: 136 mg/kg | TOX (TD50) (mice; mouse, in vivo, ip): 341 mg/kg | 6 Hz (14 mA) ED50 ([3]; (14 mA) [sic]): None | ED50 [3, 12]: 167 mg/kg | activity in 6 Hz test ([4]; 44 mA): ineffective

NC(=O)N1c2ccccc2C=Cc2ccccc21 [Carbamazepine, reference compound]
ED50 [1]: 7.8 mg/kg | sCM ED50 [2]: None | TOX (TD50) (mice; mice, IP, Table 14): 45.5 mg/kg | 6 Hz (32 mA) ED50 ([3]; 32 mA): None | 6 Hz (14 mA) ED50 ([3]; (14 mA) [sic]): None

CCCC(CCC)C(=O)O [Valproic Acid, reference compound]
ED50 [1]: 263 mg/kg | ED50 [2]: 220 mg/kg | ED50 [3, 12]: 126 mg/kg | ED50 ([3]; (14 mA) [sic], Table 14, read-out: 6 Hz (14 mA) ED50): 310 mg/kg | activity in 6 Hz test ([4]; 44 mA): need higher doses

Clc1ccc(-c2nc3ccccc3[nH]2)cc1 [MV1061, 2-(4-chlorophenyl)-1H-1,3-benzodiazole]
inhibition at 100 µM (Nav1.6 [9]): 45%

COc1cccc(-c2ncc[nH]2)c1 [MV1351, 2-(3-METHOXY-PHENYL)-1H-IMIDAZOLE OXALATE]
inhibition at 100 µM (Nav1.6 [9]): 25%

COc1cccc(-c2nc3cc(Cl)ccc3[nH]2)c1 [MV1090, 6-chloro-2-(3-methoxyphenyl)-1H-1,3-benzodiazole]
inhibition at 100 µM (Nav1.6 [9]): 85% | IC50 (Nav1.6 [9]): 29.6 µM

COc1ccc(-c2nc(-c3cccc(NC(=O)c4ccccc4)c3)c[nH]2)cc1 [MV1308, N-(3-[2-(4-METHOXY-PHENYL)-1H-IMIDAZOL-4-YL]-PHENYL)-BENZAMIDE HYDROCHLORIDE]
inhibition at 100 µM (Nav1.6 [9]): 75%

Cc1cnc(-c2ccccc2Cl)[nH]1 [MV1361, 2-(2-CHLORO-PHENYL)-5-METHYL-1H-IMIDAZOLE OXALATE]
inhibition at 100 µM (Nav1.6 [9]): 0%

Clc1ccccc1-c1ncc[nH]1 [MV1355, 2-(2-CHLORO-PHENYL)-1H-IMIDAZOLE OXALATE]
inhibition at 100 µM (Nav1.6 [9]): 0%

O=[N+]([O-])c1ccccc1-c1nc2ccccc2[nH]1 [MV1070, 2-(2-nitrophenyl)-1H-1,3-benzodiazole]
inhibition at 100 µM (Nav1.6 [9]): 20% | IC50 (Nav1.6 [9]): > 100 µM

O=C1NC(=O)C(c2ccccc2)(c2ccccc2)N1 [Phenytoin, reference compound]
sCM ED50 [2]: None | 6 Hz (32 mA) ED50 ([3]; 32 mA): None | 6 Hz (14 mA) ED50 ([3]; (14 mA) [sic]): None | activity in 6 Hz test ([4]; 32 mA): lose activity

FC(F)(F)c1ccc(-c2nc3ccccc3[nH]2)cc1 [MV1077, 2-(4-trifluoromethyl-phenyl)-1H-1,3-benzodiazole]
inhibition at 100 µM (Nav1.6 [9]): 15% | IC50 (Nav1.6 [9]): > 100 µM

COc1ccc(-c2nc(C)c(-c3ccccc3)[nH]2)cc1O [MV1508, 2-methoxy-5-(5-methyl-4-phenyl-1H-imidazol-2-yl)phenol hydrochloride]
IC50 (NaV1.5 [5]): 2.61 µM | IC50 (NaV1.7 [6]): 4.58 µM | IC50 (Nav1.6 [7]): 1.88 µM | IC50 (Nav1.6 [8]): 3.99 µM | inhibition at 100 µM (Nav1.6 [9]): 90% | IC50 (NaV1.5 [10]): 11.9 µM | IC50 (NaV1.7 [11]): 11.5 µM

CCCc1nc(-c2cccc(Cl)c2)[nH]c1C [MV1372, 2-(3-CHLORO-PHENYL)-5-METHYL-4-PROPYL-1H-IMIDAZOLE OXALATE]
inhibition at 100 µM (Nav1.6 [9]): 100%

CCCc1nc(-c2ccccc2OC)[nH]c1C [MV1370, 2-(2-METHOXY-PHENYL)-5-METHYL-4-PROPYL-1H-IMIDAZOLE OXALATE]
inhibition at 100 µM (Nav1.6 [9]): 90%

O=C(O)c1cccc(-c2nc3ccccc3[nH]2)c1 [MV1079, 3-(1H-1,3-benzodiazol-2-yl)benzoic acid]
inhibition at 100 µM (Nav1.6 [9]): 15% | IC50 (Nav1.6 [9]): > 100 µM

Cc1ccccc1-c1nc2ccccc2[nH]1 [MV1081, 2-(2-methylphenyl)-1H-1,3-benzodiazole]
inhibition at 100 µM (Nav1.6 [9]): 25% | IC50 (Nav1.6 [9]): > 100 µM

CCCc1nc(-c2ccc(Cl)cc2)[nH]c1C [MV1371, 2-(4-CHLORO-PHENYL)-5-METHYL-4-PROPYL-1H-IMIDAZOLE OXALATE]
inhibition at 100 µM (Nav1.6 [9]): 100%

CC[C@@H](C(N)=O)N1CCCC1=O [levetiracetam]
activity in 6 Hz test ([4]; 44 mA): need higher doses

O=C(O)c1ccc2nc(-c3ccccc3)[nH]c2c1 [MV1087, 2-phenyl-1H-1,3-benzodiazole-6-carboxylic acid]
inhibition at 100 µM (Nav1.6 [9]): 0% | IC50 (Nav1.6 [9]): > 100 µM

Clc1cccc(-c2nc3ccccc3[nH]2)c1 [MV1069, 2-(3-chlorophenyl)-1H-1,3-benzodiazole]
inhibition at 100 µM (Nav1.6 [9]): 65% | IC50 (Nav1.6 [9]): 37 µM

COc1ccc(C(=O)Nc2cccc(-c3c[nH]c(-c4ccc(OC)cc4)n3)c2)cc1 [MV1310, 4-METHOXY-N-(3-[2-(4-METHOXY-PHENYL)-1H-IMIDAZOL-A-YL]-PHENYL)-BENZAMIDE HYDROCHLORIDE]
inhibition at 100 µM (Nav1.6 [9]): 60%

COc1ccccc1-c1ncc(C)[nH]1 [MV1358, 2-(2-METHOXY-PHENYL)-5-METHYL-1H-IMIDAZOLE OXALATE]
inhibition at 100 µM (Nav1.6 [9]): 50%

COc1ccccc1-c1nc(C)c(C)[nH]1 [MV1364, 2-(2-METHOXY-PHENYL)-4,5-DIMETHYL-1H-IMIDAZOLE OXALATE]
inhibition at 100 µM (Nav1.6 [9]): 70%

O=C(Nc1ccc(-c2c[nH]c(-c3ccccc3)n2)cc1)c1ccc(Cl)cc1 [MV1305, 4-CHLORO-N-[4-(2-PHENYL-1H-IMIDAZOL-4-YL)-PHENYL]-BENZAMIDE HYDROCHLORIDE]
inhibition at 100 µM (Nav1.6 [9]): 50%

O=C(O)c1ccccc1-c1nc2ccccc2[nH]1 [MV1078, 2-(1H-1,3-benzodiazol-2-yl)benzoic acid]
inhibition at 100 µM (Nav1.6 [9]): 5% | IC50 (Nav1.6 [9]): > 100 µM

COc1ccc2nc(-c3ccccc3)[nH]c2c1 [MV1085, 6-methoxy-2-phenyl-1H-1,3-benzodiazole]
inhibition at 100 µM (Nav1.6 [9]): 35% | IC50 (Nav1.6 [9]): > 100 µM
